The structures appear in SMILES notation.

Usually inhibition stands for how much of the control response was suppressed. One may read the IC50 as the concentration that inhibits the measured activity by half.

Experiment [1] addresses T1, ACAT (Rattus norvegicus, UniProt Q7TQM4).
T1 construct: Rat liver microsomes are used as the source of ACAT; from tissue; host or cells: rat liver microsomes
T1 sequence (Q7TQM4 1-524): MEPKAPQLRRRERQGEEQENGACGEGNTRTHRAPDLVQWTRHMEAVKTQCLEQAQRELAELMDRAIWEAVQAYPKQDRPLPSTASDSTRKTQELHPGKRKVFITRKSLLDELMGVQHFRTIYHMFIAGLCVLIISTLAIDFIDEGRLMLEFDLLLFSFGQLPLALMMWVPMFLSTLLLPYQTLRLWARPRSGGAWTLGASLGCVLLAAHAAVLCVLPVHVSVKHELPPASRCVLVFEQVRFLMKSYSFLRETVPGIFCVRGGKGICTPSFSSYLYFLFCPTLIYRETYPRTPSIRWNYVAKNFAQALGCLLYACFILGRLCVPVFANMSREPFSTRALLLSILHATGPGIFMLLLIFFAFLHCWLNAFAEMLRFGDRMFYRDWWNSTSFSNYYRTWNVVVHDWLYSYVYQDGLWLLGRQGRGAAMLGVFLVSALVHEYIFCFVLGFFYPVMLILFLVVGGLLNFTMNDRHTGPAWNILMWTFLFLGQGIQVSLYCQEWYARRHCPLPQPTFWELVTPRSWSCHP
The experiment is described as follows: ACAT assay (in vitro). The class given is biochemical. The conditions noted are these: rat liver microsomes; for inhibition at 25 µM / inhibition at 10 µM: read-out: ACAT Inhibition Screen % Inhibition; for IC50: pH 7.4, 37° C., 10 μM acyl CoA, read-out: ACAT Inhibition Screen IC50. The method, then: The in vitro activity of compounds of formula I or Ia can be determined by the following procedure.
This assay measures the activity of ACAT by measuring the ACAT-mediated transfer of tritiated oleic acid from acyl-CoA to cholesterol to give labelled cholesterol oleate. Rat liver microsomes are used as the source of ACAT. Assays are performed in round bottom microtiterplates using a total incubation volume of 50μL. Each incubation well receives 10 μL assay buffer (0.5M KHPO4, 10 μM dithiothreitol, pH 7.4), 7.5 μL of 40 mg/mL BSA (Bovine Serum Albumin) and 12.5 μg of microsomal protein. The test compound (in sufficient amount to bring the final concentration to from 0.1 to 25 μM), reference compound, or vehicle control is added and the final volume brought to 47 μL. The microtiterplate is then floated on the surface of a 37° C. water bath for fifteen minutes. Incubations are started by the addition of 3 μL ^3 H-acyl CoA (1 μCi/well, final concentration of 10 μM acyl CoA). The plate is then returned to the water bath for 15 minutes. The incubations are then terminated by application of 15 μL from each incubation to individual lanes on a thin layer plate (Silica Gel GF 20×20 cm). Standards are applied to several lanes so that the cholesterol ester band can be identified. After drying, the plates are eluted with 90:10:1 petroleum ether:diethyl ether:acetic acid. The standards are visualized via iodine vapor, and the regions corresponding to cholesterol ester are scraped into 7 mL scintillation vials. 4 mL of scintillant are added to each vial, and the radioactivity quantified. Background count is determined by the boiled controls. Full activity is determined by activity in the presence of vehicle. The percent inhibition is calculated by subtracting the background from both control and test samples, and the test value is calculated as a percentage of the control. For IC50 determinations, the inhibition is plotted against drug doses on a log scale and the concentration at which 50% inhibiting is obtained is determined.
Background: Microsomes from liver hold many membrane-bound enzymes, among them those of drug oxidation.

Experiment [2] deals with T1, ACAT. The experiment is described as follows: ACAT assay (in vitro). In kind it is biochemical. The conditions noted are these: rat liver microsomes, read-out: ACAT Inhibition Screen % Inhibition.

Take `CCCCCCCC/C=C\CCCCCCCC(=O)N1CCc2cc(O)c(O)cc2C1Cc1ccccc1` (centres unmarked) [R3=C6H5CH2, R4=H, R5=H, R2a=OH, R2b=OH, N-(1-benzyl-6,7-dihydroxy-1,2,3,4-tetrahydroisoquinoline)-9-Z-octadecenamide]: the inhibition at 25 µM in experiment [1] worked out at 73%.

Regarding `CCCCCCCC/C=C\CCCCCCCC(=O)N1CCc2ccccc2C1` [R3=H, R4=H, R5=H, R2a=H, R2b=H], the IC50 in experiment [1] was 12 µM. The inhibition at 100 µM in experiment [2] came to 83%.

Consider `CCCCCCCC/C=C\CCCCCCCC(=O)N1Cc2cc(OC)c(OC)cc2CC1c1ccc(OC)c(OC)c1` (centres unmarked) [N-[6,7-dimethoxy-3-(3,4-dimethoxyphenyl)-1,2,3,4-tetrahydroisoquinoline]-9-Z-octadecenamide], for which the inhibition at 25 µM in experiment [1] is 67%.

Consider `CCCCCCCC/C=C/CCCCCCCC(=O)N1CCc2cc(OC)c(OC)cc2C1c1ccccc1` (centres unmarked), for which, in experiment [1], the inhibition at 10 µM stood at 87% and the IC50 was found to be 8 µM.

As for `CCCCCCCC/C=C\CCCCCCCC(=O)N1CCc2ccccc2C1Cc1ccccc1` (centres unmarked) [R3=C6H5CH2, R4=H, R5=H, R2a=H, R2b=H], in experiment [1], the inhibition at 25 µM amounted to 81%.

For `CCCCCCCC/C=C\CCCCCCCC(=O)N1Cc2cc(OC)c(OC)cc2CC1c1ccccc1` (centres unmarked) [R3=H, R4=C6H5, R5=H, R2a=CH3O, R2b=CH3O, N-(6,7-dimethoxy-3-phenyl1,2,3,4-tetrahydroisoquinoline)-9-Z-octadecenamide], the inhibition at 25 µM in experiment [1] amounted to 86%.

In the case of `CCCCCCCC/C=C\CCCCCCCC(=O)N1CCc2cc(OC)c(OC)cc2C1Cc1ccc(OC)c(OC)c1` (centres unmarked), in experiment [1], the inhibition at 25 µM worked out at 91%.

As to `CCCCCCCC/C=C\CCCCCCCC(=O)N1CCc2ccccc2C1c1cc(Cl)ccc1NC` (centres unmarked) [N-[1-(2-methylamino-5-chlorophenyl)-1,2,3,4-tetrahydroisoquinoline]-9-Z-octadecenamide], the inhibition at 10 µM in experiment [1] came out at 10%.

Consider `CCCCCCCC/C=C\CCCCCCCC(=O)N1CCc2cc(OC)c(OC)cc2C1c1ccccc1` (centres unmarked) [N-(6,7-dimethoxy-1-phenyl-1,2,3,4-tetrahydroisoquinoline)-9-Z-octadecenamid], for which the inhibition at 10 µM in experiment [1] is 66%.

Consider `CCCCCCCC/C=C\CCCCCCCC(=O)N1CCc2cc(OC)c(OC)cc2C1Cc1ccccc1` (centres unmarked), for which the inhibition at 25 µM in experiment [1] was 63%.

`CCCCCCCC/C=C\CCCCCCCC(=O)N1Cc2cc(OC)c(OC)cc2C(c2ccccc2)C1` (centres unmarked) [R3=H, R4=H, R5=C6H5, R2a=CH3O, R2b=CH3O, N-(6,7-dimethoxy-4-phenyl-1,2,3,4-tetrahydroisoquinoline)-9-Z-octadecenamid]: in experiment [1], the inhibition at 25 µM came out at 83% and the IC50 turned out to be 2.4 µM.

Turning to `CCCCCCCC/C=C\CCCCCCCC(=O)N1CCc2cc(OC)c(OC)cc2C1` [R3=H, R4=H, R5=H, R2a=CH3O, R2b=CH3O], in experiment [1], the inhibition at 25 µM turned out to be 100% and the concentration for half-maximal inhibition (IC50) turned out to be 0.74 µM.

Regarding `CCCCCCCC/C=C\CCCCCCCC(=O)N1CCc2cc(C)c(OC)cc2C1CCc1ccc(Cl)cc1` (centres unmarked), the inhibition at 25 µM in experiment [1] was 4%.

These data come from patent US5238935A, “N-acyl-tetrahydroisoquinolines as inhibitors of acyl-coenzyme A: cholesterol acyl transferase” (Schering Corporation, priority 1992, dated 1993).
